Converted amounts (≈) assume the structure as drawn.

The test system of the experiment is Mycobacterium tuberculosis (bacteria resistant to quinolone). The experiment is described as follows: microbe, parasite or virus in culture. The format is cell-based.

Regarding `COc1c(N2CC3(CC3)[C@](C)(N)C2)c(F)cc2c(=O)c(C(=O)O)cn([C@@H]3C[C@@H]3F)c12` [Hemihydrate, 7-[(7S)-7-Amino-7-methyl-5-azaspiro[2.4]heptan-5-yl]-6-fluoro-1-[(1R,2S)-2-fluorocyclopropyl]-8-methoxy-1,4-dihydro-4-oxoquinoline-3-carboxylic acid hemihydrate], the MIC was 0.125 µg/mL (strain 1 (QR-3)); 0.5 µg/mL (strain 2 (QR-6)); 0.25 µg/mL (strain 3 (QR-1)); 0.25 µg/mL (strain 4 (QR-9)); 0.125 µg/mL (strain MDR 1); 0.125 µg/mL (strain MDR 3). Also, the MIC reads like this: (strain MDR 4) 0.25 µg/mL; (strain MDR 5) 0.5 µg/mL; (strain MDR 7) 0.125 µg/mL; (strain MDR 9) 0.125 µg/mL; (strain MDR 12) 0.125 µg/mL; (strain s 1) 1 µg/mL.

On to `CO[C@H]1/C=C/O[C@@]2(C)Oc3c(C)c(O)c4c(O)c(c(/C=N/N5CCN(C)CC5)c(O)c4c3C2=O)NC(=O)/C(C)=C\C=C\[C@H](C)[C@H](O)[C@@H](C)[C@@H](O)[C@@H](C)[C@H](OC(C)=O)[C@@H]1C` [RFP, rifampicin], for which the MIC was more than 128 µg/mL (strain 1 (QR-3)); more than 128 µg/mL (strain 2 (QR-6)); 128 µg/mL (≈ 156 µM) (strain 3 (QR-1)); more than 128 µg/mL (strain 4 (QR-9)); 16 µg/mL (≈ 19.4 µM) (strain MDR 1); 128 µg/mL (≈ 156 µM) (strain MDR 3). Also, the MIC was 64 µg/mL (≈ 77.8 µM) (strain MDR 4); 32 µg/mL (≈ 38.9 µM) (strain MDR 5); more than 128 µg/mL (strain MDR 7); 128 µg/mL (≈ 156 µM) (strain MDR 9); 128 µg/mL (≈ 156 µM) (strain MDR 12); 16 µg/mL (≈ 19.4 µM) (strain s 1).

Values taken from patent US8003666B2, “Hydrate for medical purposes” (priority 2006, dated 2011).
